Earlier results, collected in US20080171790A1, “Fatty acids-systemic lipid solubilizers conjugates” (priority 2007, published 2008).

Details: after oral administration

proportion of the administered substance excreted in the urine as a glucuronide: up to 84%
SMILES: C[C@H](CCC(=O)O)[C@H]1CC[C@H]2[C@@H]3C[C@H](O)[C@@H]4C[C@H](O)CC[C@]4(C)[C@H]3CC[C@]12C [hyodeoxycholic acid, Hyodeoxycholic acid]
